Patent US5976523A, “Method for healing compromised tissues using pyrimidine derivatives” (Mitsui Pharmaceuticals, Inc., priority 1995, dated 1999)
Where a name gives a salt, the structure may show the parent alone.

Tests used:
Ito (star) cells = assay: DNA and collagen synthesis and αSM expression in Ito (star) cells; type: cell-based, SD rat
Text: (§1) As fulminant hepatitis may develop hepatocellular regeneration failure despite a high HGF concentration in blood, use of a medicament capable of enhancing effects of a growth factor is desired. Activities of a compound according to the present invention as a hepatic medicine were investigated using primary cultured cells and Ito (star) cells of rat.
On the other hand, an SD male rat of about 300 g in body weight was sacrificed by perfusion of physiological saline containing collagenase and proteinase. Ito (star) cells were collected and then spread at 1.25×10^5 cells/cm^2 over plates, followed by the initiation of cultivation. The cultivation was conducted for 6 days. In a manner similar to the procedures described above, some of the plates were added with the invention compound and [^3 H]-leucine 24 hours before harvest, while the remaining plates were added with the invention compound 24 hours before harvest and were then added with [^3 H]-tymidine two hours before the harvest. The synthesized amount of DNA and that of proteins were measured. Further, after Ito cells were cultured for 6 days, the invention compound and b-FGF were added. Subsequent to cultivation for 30 minutes, […] of ascorbic acid and 0.5 mM of β-aminopropionitrile fumarate were added, followed by cultivation for 1 hour. [2,3-^3 H]-proline (10 μCi/ml) was added, followed by further cultivation for 24 hours. The culture was separated into the culture medium and the resultant cells, and a TCA precipitate was formed. After the precipitate was dissolved with 0.1N NaOH, the cells were incubated in the presence of bacterial collagenase. The reaction was terminated with TCA-tannic acid, followed by the formation of a pellet. A supernatant fraction was added to the liquid scintillator and the amount of proteins synthesized by the cells was measured by the liquid scintillation counter.

hepatocytes = assay: DNA and protein synthesis in primary cultured hepatocytes; type: cell-based, SD rat
Text: as §1
An SD male rat of about 200 g in body weight was sacrificed by perfusion of collagenase-containing physiological saline. Hepatocytes were immediately collected and then spread at 5.0×10^4 cells/cm^2 over plates, followed by the initiation of cultivation. Two hours later, the culture medium was replaced by a fresh supply of the culture medium. Twenty-four hours later, EGF and [^3 H]-leucine (1 μCi/ml) were added to half the number of the plates with or without addition of 2-piperidino-7-methyl-6-oxo-5,6-dihydro(7H)pyrro[2,3-d]pyrimidine maleate, respectively. At the same time, EGF was added to the remaining plates with or without addition of the invention compound, respectively. Forty-six hours later, the latter plates were both added further with [^3 H]-tymidine (2 μCi/ml). Forty-eight hours later, each culture was filtered under suction to harvest the cells so cultivated. Trichloroacetic acid (TCA) was added to the thus-harvested cells to obtain a TCA precipitate. The TCA precipitate was formed into a pellet. The pellets which had been obtained from the [^3 H]-tymidine-added cultures, respectively, were each dissolved with 0.1N NaOH. The resulting solution was added to a liquid scintillator and the amount of DNA synthesized by the cells was measured by a liquid scintillation counter. Likewise, the pellets which had been obtained from the [^3 H]-leucine-added cultures, respectively, were each boiled at 70° C. to extract soluble matter. The extract so obtained was also added with TCA to obtain a TCA precipitate. The TCA precipitate was dissolved with 0.1N NaOH. The resulting solution was added to the liquid scintillator and the amount of proteins synthesized by the cells was measured by the liquid scintillation counter.

[1] = system: primary cultured gastric mucosal cells; assay: Wound repair model with primary cultured gastric mucosal cells; type: cell-based, rabbit
Method: Primary cultured gastric mucosal cells were prepared by mechanically peeling and mincing the gastric mucosa of a rabbit having a body weight of 2 kg and then digesting the minced gastric mucosa with 0.07% collagenase. The primary cultured gastric mucosal cells were cultured at a cell concentration of 3.3×10^5 cells/ml in F-12 culture medium containing 10% fetal calf serum added therein. For this cultivation, a culture dish (60 mm in diameter) coated with collagen type I was used. […] Using an anti-BrdU antibody, the cells in the S phase were stained to identify proliferated cells.
Their effects on the process of restoration were measured under the above-described parameters. […] In each of the control group and the medicament-added groups, the area of the wounded region was measured at the 0th hour, 12th hour, 24th hour, 36th hour and 48th hour. The measurement results will be given in this order.
The control group and the groups added with the medicament at the respective concentrations were each subjected to the experiment with n=5. The results will each be presented as a (mean±S. D.) mm2. A test of significance was conducted relative to the control group. * stands for p<0.05, ** for p<0.01, *** for p<0.001. A further test of significance was conducted relative to a group added with 10 ng/ml of EGF. + stands for p<0.05, and ++ for <0.01.

bone defect (tibia) = assay: Rat bone defect model, formation of hyaline cartilage matrix; type: in vivo; conditions: bFGF (0.5 μg) pellet, 7th day
Text: Action of 2-piperazino-6-methyl-5-oxo-5,6-dihydro(7H)pyrro[3,4-d]pyrimidinemaleate on in vivo chondrogenesis was studied in detail by preparing a rat bone defect model which permits observation of bFGF-derived formation of a hyaline cartilage matrix. Embedment of a bFGF-containing pellet in a bone defect of the model permits easy observation of formation of a hyaline cartilage matrix under the periosteum around the bone defect. Rats were divided into three groups. The rats in one of the groups were each embedded in a formed bone defect (diameter: 2.6 mm) thereof with a hydroxyethyl methacrylate pellet (10 mg) which contained bFGF (0.5 μg). The rats in another one of the groups were each embedded likewise with a hydroxyethyl methacrylate pellet (10 mg) which contained bFGF (0.5 μg) and the invention compound (0.5 mg). The rats in the remaining group, that is, a control group were each embedded similarly with a pellet which contained physiological saline. After the rats in all the three groups were sacrificed seven days later, action of bFGF or the invention compound on the process of chondrogenesis on enchondral ossification around the bone defect was investigated. On the 7th day after the formation of the bone defect, the tibia of each rat was histologically examined around the bone defect.

[2] = system: CAMs (chorioallantoic membranes); assay: Angiogenesis on chorioallantoic membranes (CAM); type: in vivo, chick; conditions: day 3
Method: For a bFGF, various assay systems assessing the angiogenesis activity of the bFGF as an index are usable. The shells of chick embryos are fenestrated centrally corresponding to the air spaces thereof, whereby the chorioallantoic membranes (CAMS) are exposed. Solutions of the bFGF and a test medicament at various concentrations were applied onto the respective CAMs. Incubation was continued. Several days later, the degrees of angiogenesis were investigated under a microscope. This method is preferably employed. […] The test medicament is therefore found to be useful for the reduction of a time required for the construction of a skin-equivalent tissue. […] Also with respect to a VEGF, its angiogenesis activity can be assayed in a similar system.
The shells of eggs on the 10th day after fertilization were fenestrated centrally corresponding to air spaces thereof, whereby CAMs (chorioallantoic membranes) were exposed. A nylon film in the form of a square of 3 mm in side was placed over the CAM, and onto the nylon film, a solution of bFGF as a growth and/or differentiation factor or the pyrimidine compound according to the present invention was dropped in an amount of 8 ul. Incubation was continued at 38° C. On the 72nd hour, the eggs were moved to a cool place controlled at 4° C. After the eggs were left over for 2 to 3 hours there, the degree of angiogenesis in each egg was investigated under a microscope. The angiogenesis was determined based on the number of radial blood vessels equal to or larger than 0.1 mm in diameter. Onto the nylon disk placed over the CAMS, 1, 10, and 100 ng/ml solutions of recombinant human bFGF (product of Genzyme Corporation) in physiological saline and 0.01 to 1 mM solutions of the individual pyrimidine compound in physiological saline were applied singly or in combination.

[3] = 1 μM to 100 μM, irrespective of b-FGF

With CN1C(=O)Cc2cnc(N3CCCCC3)nc21 [Compound A, 2-piperidino-7-methyl-6-oxo-5,6-dihydro(7H)pyrro[2,3-d]pyrimidine maleate] the “synthesis of DNA by the star cells” value (Ito (star) cells; [3]) was “lowered depending on the amount of the invention compound”, the “synthesis of collagen by the star cells” value (Ito (star) cells; [3]) was “lowered depending on the amount of the invention compound” and the “expression of αSM” value (Ito (star) cells; compound with b-FGF, quantity-dependent) was “allowed to recover by the addition of the invention compound in a quantity-dependent manner”. For the same molecule, the “expression of α2-smooth muscle actin (αSM)” value (Ito (star) cells; compound, absence of b-FGF) was “lowered by the addition of the invention compound”, the “concentration of albumin in the supernatant” value (hepatocytes; 10 μM compound, with EGF) was “no change was observed” and the “expression of mRNA (albumin)” value (hepatocytes; 10 μM compound, with EGF) was “no change was observed”. For the same molecule, the “synthesis of DNA by the hepatocytes” value (hepatocytes; 10 μM compound, with EGF) was “significantly increased”, the “synthesis of DNA by the hepatocytes” value (hepatocytes; without EGF) was “not recognized to promote the synthesis of DNA” and the “area of the wounded region (mean±S.D.)” value ([1]; EGF + 0.01 mM compound, 0th hour) was 2.06±0.05 mm2. For the same molecule, the “area of the wounded region (mean±S.D.)” value ([1]; EGF + 0.01 mM compound, 12th hour) was 0.72±0.36 mm2, the “area of the wounded region (mean±S.D.)” value ([1]; EGF + 0.01 mM compound, 24th hour) was 0.39±0.04 mm2 and the “area of the wounded region (mean±S.D.)” value ([1]; EGF + 0.01 mM compound, 36th hour) was 0.05±0.04 mm2. For the same molecule, the “area of the wounded region (mean±S.D.)” value ([1]; EGF + 0.01 mM compound, 48th hour) was 0 mm2, the “area of the wounded region (mean±S.D.)” value ([1]; EGF + 0.1 mM compound, 0th hour) was 2.08±0.08 mm2 and the “area of the wounded region (mean±S.D.)” value ([1]; EGF + 0.1 mM compound, 12th hour) was 0.80±0.04 mm2. For the same molecule, the “area of the wounded region (mean±S.D.)” value ([1]; EGF + 0.1 mM compound, 24th hour) was 0.24±0.05 mm2, the “area of the wounded region (mean±S.D.)” value ([1]; EGF + 0.1 mM compound, 36th hour) was 0 mm2 and the “area of the wounded region (mean±S.D.)” value ([1]; EGF + 0.1 mM compound, 48th hour) was 0 mm2. For the same molecule, the “effect on EGF-induced acceleration of cell restoration” value ([1]; compound 0.01-0.1 mM with EGF) was “further promoted the EGF-induced acceleration of cell restoration in a concentration-dependent fashion” and the repairing effects ([1]; compound alone 0.01-0.1 mM, absence of EGF) was “did not show repairing effects in the absence of EGF”.
For “bFGF: basic fibroblast growth factor; recombinant human bFGF (product of Genzyme Corporation) in Example 26”, the “expression of αSM” value (Ito (star) cells; b-FGF alone) was “lowered by the presence of b-FGF”, the “formation of a hyaline cartilage matrix” value (bone defect (tibia)) was “in a small amount” and the “number of new blood vessels (M±SE)” value ([2]; bFGF alone 1 ng/ml) was 4.1±0.4. The “number of new blood vessels (M±SE)” value ([2]; bFGF alone 10 ng/ml) was 4.3±0.7 and the “number of new blood vessels (M±SE)” value ([2]; bFGF alone 100 ng/ml) was 6.1±1.1.
